We go through nine molecules from US20070072815A1, “Methods and kits to increase the efficiency of oligonucleotide-directed nucleic acid sequence alteration” (priority 2004, published 2007).

Assay [1] deals with α-galactosidase A (GLA) activity in Fabry's cell line DMN-1. The experiment in a line: GLA activity in Fabry's cells after ODSA. The assay is classed as cell-based, human. From the text:
Cell line DMN-1, a human fibroblast cell line derived from a human patient with Fabry's disease, is obtained from the National Institutes of Health (NIH). These cells are used to measure the efficiency of correction of a mutant allele of α-galactosidase A (GLA) using methods of the present invention. The specific disease-causing mutation in the Fabry's cell line used herein is A143P, caused by a G→C mutation in the gene. See Branton et al., Medicine (Baltimore) (2002) 81(2): 122-38.
All four oligonucleotides are used to effect ODSA substantially as described in Example 1, with the exception that cells are transfected with oligonucleotides, rather than electroporated. Oligos are added at 5 μg, 10 μg or 30 μg per reaction. After ODSA is performed, cells are cultured and assayed for GLA activity according to the method of Brady, as described in Medin et al., Proc. Natl. Acad. Sci. (USA) (1996) 93:7917-22, the disclosure of which is incorporated herein by reference in its entirety. The GLA activity is used as a measure of gene correction by comparing the activities in treated versus untreated cultures. The correction efficiency is subsequently confirmed by sequencing of the locus of mutation in a number of treated cells.
[…] Unlike the experiments involving correction of eGFP in DLD-1-1 cells described in Example 1, however, certain of the agents (VPA, caffeine, TSA) in the experiments in this example are not added before transfection, but are instead added only after transfection, during the recovery period.
The means of introducing oligonucleotide into the target cells also differs from previous examples, with transfection in the presence of the transfection enhancing agent FuGENE™ 6 (FG) (Roche Diagnostics Corp., Indianapolis, Ind., USA) being used rather than electroporation. Each transfection reaction includes 100 μl of target cells and 12 μl of FG unless otherwise indicated, despite the fact that FG is not explicitly listed for each datapoint in the relevant figures. Otherwise the procedures used in the DLD-1-1 experiments and the Fabry's experiments are similar.
The results of a further series of experiments are shown at FIG. 15D, where the data are presented as GLA activity as nanomolar (nM) concentration of the product of the GLA assay generated per hour per unit protein concentration (as are the data in FIGS. D and E).

Assay [2] deals with DLD-1-1 cells. The experiment in a line: Cell cycle analysis (DNA content by FACS), cells in S phase. The assay is classed as cell-based. The method, then:
(§1) For cell cycle analysis, 1×10^6 cells are plated 24 hrs before the treatment with drugs and after 24 hrs of treatment, cells are trypsinized, resuspended in 300 μl cold PBS and fixed by adding 700 μl cold ethanol. Cells are then resuspended in 1 ml of PBS containing 500 µg/ml RNaseA and […] propidium iodide and analyzed for DNA content.
The effect of cell cycle on the efficiency of ODSA is assessed by synchronizing a population of DLD-1-1 cells with mimosine, which arrests cells in early S phase, and serum starvation. Cells are seeded at a density of 0.8×10^6 per 100 mm dish, attached for 20 hours and then cultured in RMPI-1640 medium containing 0.2% fetal bovine serum (FBS). These cells are grown for 48 hours followed by treatment with 0.1 mM mimosine (Sigma, St. Louis, Mo., USA) for 20 hours. Cell are washed twice with PBS and released at various times into fresh medium complemented with 10% FBS before electroporation. Cells are rinsed once with PBS, trypsinized and harvested by centrifugation and resuspended in PBS containing 10 μg/ml propidium iodide, 0.03% Triton-100 and 1 mg/ml RNase. Cells are incubated at room temperature for 1 hour before the measurement of DNA content by FACSCalibur™ flow cytometer. The percentage of cells at various stages of the cell cycle is determined by ModFit L™ software (Verity Software House, Inc., Topsham, Me., USA).
(§2) The resulting cells are then either analyzed by FACS, or the percentage of cells in S phase is determined by BrdU incorporation. FIG. 8 presents the results of both sets of experiments.
(In general: Flow cytometry measures light scatter and fluorescence of single cells or particles in a stream.)

Assay [3] concerns mutant eGFP gene in DLD-1-1 cells. The experiment in a line: eGFP gene correction (oligonucleotide-directed sequence alteration) in DLD-1-1 cells, FACS readout. The assay is classed as cell-based. The settings on record: for effect on correction when added after electroporation: recovery period, AraC 2-48 hrs, aphidicolin 6 μM at 2, 6 and 24 hrs. Here is the method:
Cell line and culture conditions: DLD-1 cells are obtained from ATCC (American Type Cell Culture, Manassas, Va.). DLD-1 integrated clone 1 (DLD-1-1) is obtained by integration of the vector pEGFP-N3 containing a single point mutation (TAG) in the eGFP gene, as described in copending U.S. patent application Ser. No. 10/986,418, filed Nov. 10, 2004 (“Mammalian Cell Lines for Detecting, Monitoring, and Optimizing Oligonucleotide-Mediated Chromosomal Sequence Alteration”). Cells are grown in RPMI 1640 medium with 2 mM glutamine, 4.5 g/L glucose, 10 mM HEPES, 1 mM sodium pyruvate and supplemented with 10% FBS. Cells are maintained at 5% CO2, 37° C. and under selection in 200 μg/ml G418 (Gibco, Invitrogen Co., Carlsbad, Calif.).
eGFP gene correction: Cells grown in complete medium supplemented with 10% FBS are trypsinized and harvested by centrifugation. The cell pellet is resuspended in serum-free medium at a density of 1×10^6 cells/100 μl and transferred to a 4 mm gap cuvette (Fisher Scientific, Pittsburgh, Pa.). The oligonucleotide is then added at a concentration of 4 μM and the cells are electroporated (LV, 250V, 13 msec, 2 pulses, 1 second interval) using a BTX ECM830 apparatus (BTX, Holliston, Mass.). The cells are then transferred to a 60 mm dish containing fresh medium supplemented with 10% FBS and incubated for 48 hrs at 37° C. before harvesting for FACS analysis.
The percentage of converted cells in a whole population is then calculated by CellQuest™ (Becton Dickinson) and GFP/PI programs. The correction efficiency is determined by dividing the number of eGFP positive cells by the number of cells analyzed in each experiment (usually 50,000 cells). Each clone is tested three times to determine the standard deviation of the correction efficiency, with standard deviation calculated using Microsoft Excel.
The experimental strategy involves the introduction of oligonucleotides into DLD-1-clone 1 cells by electroporation followed by phenotypic readout of the corrected eGFP gene, 48 hours later. The correcting oligonucleotide (EGFP3S/72NT) is 72 bases in length (72-mer), complementary to the non-transcribed strand of the mutant eGFP gene but designed to create a single mismatch in the third base of codon 67 (see FIG. 1A). It directs conversion of a TAG→TAC codon which enables phenotypic expression of eGFP, which can be detected by FACS. FIG. 1B outlines the sequence of the target gene, the 72-mer and a nonspecific 74-mer used as a control.
Oligonucleotide-Directed Sequence Alteration: The resulting synchronized populations of cells, and asynchronous controls, are grown in complete medium supplemented with 10% FBS and trypsinzed and harvested by centrifugation at 1500 rpm for 5 minutes. The cell pellet is resuspended in fresh serum-free medium at a density of 2×10^6 cells/100 μl. The entire cell suspension is mixed with 20 μg of EGFP/72NT and transferred into a 4 mm gap cuvette (Fisher Scientific, Pittsburgh, Pa., USA) followed by electroporation with two 250V pulses, each 13 ms in duration, with one second between pulses, unipolar.
Cells are incubated at room temperature for 30 min. […] Frequency of converted cells are calculated by CellQuest™ and GFP/PI programs.
Double Thymidine Block: Cells are synchronized in G1 or at the G1/S border by a double thymidine block. Twenty-four hours prior to the addition of any agent (HU, etc.), cells are plated at a density of 0.5×10^6 cells per 100 mm dish, followed by incubation in 2 mM thymidine (Sigma) for 16 hrs, washed and released in fresh medium for 10 hrs, then incubated in 2 mM thymidine for an additional 15 hrs.
FACS is then used to analyze 50,000 cells from each population to determine the percentage of cells expressing functional eGFP, as described in Example 1.

Assay [4] concerns DLD-1-1 cells. The experiment in a line: BrdU incorporation (actively replicating forks). The settings on record: for BrdU uptake (cells actively incorporating DNA bases): 24 hour treatment, 500 μM ddC, ddI or AraC (FIG. 17B). It counts as cell-based. Here is the method: as §1, §2
As stated above, the lack of stimulation observed in cells treated with AraC could be explained by the reduced number of cells passing through S phase or the absence of actively replicating forks. If true, we might predict that a rise in the gene repair frequency would appear if the cells are released from the AraC block and replication forks are allowed to restart prior to the electroporation of the oligonucleotide. We test this prediction by treating the cells with AraC for 24 hrs and then releasing them by washing out the drug at specific times. We measure the level of BrdU incorporation at the time of electroporation and evaluate the frequency of correction 48 hrs later.

[5] abbreviates: 24 hour treatment, 500 μM ddC, ddI or AraC (FIG. 17A).
[6] abbreviates: 2-5 μM VPA in the recovery phase.
Setting [7] is: serum starvation + mimosine, 8 hours after release.

“Also recorded” adds a separate entry of the source.

As for `CC(/C=C/C(=O)NO)=C\[C@@H](C)C(=O)c1ccc(N(C)C)cc1` [TSA, trichostatin A], in assay [1] (synchronized cells, 500 μM ddC, 4 mM caffeine or 100 ng/ml TSA during recovery period), the “effect on ddC-enhanced GLA activity” value was “eliminate the ability of 500 μM ddC to enhance GLA activity”.
For the molecule `Nc1ccn([C@@H]2O[C@H](CO)[C@@H](O)[C@@H]2O)c(=O)n1` [AraC, 1-β-D-arabinofuransylcytosine], the “cells in S phase” value in assay [2] (setting [5]) was determined as 26%. In addition, the “reduction in S phase cells” value in assay [2] (AraC at 20 μM and 250 μM) came to 9%. Also, the “effect on correction levels” value in assay [3] (AraC 5 μM to 250 μM, 24 hrs before electroporation) is listed as “no enhancement in correction levels; also recorded: significantly insignificant effect”. In assay [3] (AraC 24 hrs, then washed out before electroporation), the “time post release at which gene repair activity reaches maximal level” value was found to be 8 h. The “effect on correction when added after electroporation” value in assay [3] is given as “correction levels drop substantially”. The “BrdU uptake (cells actively incorporating DNA bases)” value in assay [4] was “essentially zero”. Besides, the “time after release at which elevation in BrdU incorporation is observed” value in assay [4] (AraC 24 hrs, then washed out) was no more than 2 h.
Regarding `C[C@@]1(CO)[C@H](O)CC[C@@]2(C)[C@H]1CC[C@H]1C[C@@H]3C[C@@]12CC[C@]3(O)CO` [Aphidicolin, aphidicolin], the “effect on correction when added after electroporation” value in assay [3] is listed as “low level of correction”.
Consider `CCCC(CCC)C(=O)O` [VPA, valproic acid], for which, in assay [1] (5 μM VPA during recovery period), the “GLA activity versus untreated cells” value is given as “over 20 fold”. Moreover, the GLA activity in assay [1] (5 μM VPA during recovery period after transfection with 49T/gg) is on record as 98.71 nM product per hour per unit p. For the same molecule, in assay [1] (setting [6]), the “GLA activity over untreated cells” value worked out at 25 fold and the “GLA activity versus cells treated identically without VPA” value is listed as “more than eight-fold”.
In the case of `O=c1[nH]cnc2c1ncn2[C@H]1CC[C@@H](CO)O1` [ddI, dideoxyinosine], in assay [2] (setting [5]), the “cells in S phase” value is “does not show an increase in the number of cells in S phase”. Besides, the “effect on gene correction” value in assay [3] (various dosages of ddI) is “no significant increase in gene correction; also recorded: statistically insignificant effect”. In addition, in assay [4], the “BrdU uptake (cells actively incorporating DNA bases)” value is given as “no difference from non-treated cells”.
For the molecule `COc1cc(C=O)ccc1O` [vanillin], the “effect on correction efficiency” value in assay [3] (1 mM vanillin, before or after electroporation, with or without ddC) is recorded as “no effect on correction efficiency; also recorded: does not inhibit gene repair activity”. Besides, the “effect on ddC-stimulated gene repair” value in assay [3] (inhibitor added with ddC before electroporation (FIG. 20)) is on record as “statistically unchanged”.
On to `CC[C@@]1(O)C(=O)OCc2c1cc1n(c2=O)Cc2cc3ccccc3nc2-1` [CPT, camptothecin], for which the “effect on correction efficiency” value in assay [3] (CPT pretreatment at 30-100 nM) was “triples correction efficiency”. Moreover, the “GLA activity versus no treatment control” value in assay [1] (7.5 nM CPT during recovery) is given as “approximately six-fold”. For the same molecule, the GLA activity in assay [1] (7.5 nM CPT during recovery, 49T/gg) was 26.84 nM product per hour per unit p. For the same molecule, the “effect on GLA activity” value in assay [1] (CPT 7.5 nM (FIG. 15D summary)) is “more than doubles GLA activity”.
Regarding `COc1cc([C@@H]2c3cc4c(cc3[C@@H](O[C@@H]3O[C@@H]5CO[C@@H](C)O[C@H]5[C@H](O)[C@H]3O)[C@H]3COC(=O)[C@H]23)OCO4)cc(OC)c1O` [VP16, 4′-demethylepipodophyllotoxin-9-(4,6-O-ethylidene-beta-D-glucopyranoside)], the “cells in S-phase” value in assay [2] (24 hours, 1 mM HU or 3 μM VP16, FACS analysis) is 56%. Also, in assay [4] (24 hours, 1 mM HU or 3 μM VP16), the “percentage of cells in S phase by BrdU” value is 56%.
Consider `NC(Cn1ccc(=O)c(O)c1)C(=O)O` (stereo not drawn) [mimosine], for which the “cells in S phase” value in assay [2] (serum starvation + 0.1 mM mimosine, 8 hours after release) is on record as 86%. The “increase of proportion of cells in S phase versus asynchronous cells” value in assay [2] (setting [7]) is reported as 2.5 fold. Also, the “increase of correction efficiency versus asynchronous cells” value in assay [3] (setting [7]) is listed as 2.5 fold.
